Laboratory results published in patent publication US20170216213A1, “DIRECTLY COMPRESSIBLE POLYVINYL ALCOHOLS” (Merck Patent GmbH, priority 2014, published 2017).

Test: Ascorbic acid in-vitro release test (USP Apparatus 2, paddle)
Format: physicochemical
Conditions: from PVA/MCC matrix tablets (samples 1 and 2)
Description: 9. Ascorbic acid release test: The ascorbic acid-containing compressed tablets (from the compressions with a pressing force of 20 kN) are measured in a SOTAX (Allschwil, Switzerland) in-vitro release apparatus using the “Apparatus 2 (Paddle Apparatus)” described in USP 36 under <711> and under the conditions described therein for “Extended-release dosage forms” (USP=United States Pharmacopoeia). The sampling is carried out automatically via a hose pump system with subsequent measurement in an 8453 spectrometer (Agilent Technologies, USA) and a flow cell.
The averaged values are obtained from the release tests of in each case 6 ascorbic acid-containing tablets pressed with a pressing force of 20 kN.
Measurement Apparatuses and Measurement Parameters:
1. —Sotax AT7s release apparatus fitted with Apparatus 2 (Paddle Apparatus in accordance with USP 36) • Temperature: 37° C.+/−0.5° C. • Paddle speed: 100 rpm • Volume of release medium per measurement vessel: 900 ml • Tablet weight: 500 mg • Total run time of the measurement: 720 min. (with sampling after 15, 30, 45, 60, 120, 180, 240, 300, 360, 420, 480, 540, 600, 660, 720 min.)
2. —Hose pump for sampling: Sotax CY 7-50 (SOTAX, Switzerland)
3. —8453 spectrometer (Agilent Technologies, USA) • Measurement at 244 nm in a 2 mm flow measurement cell • Evaluation via Excel • Medium preparation: Dosa Prep X8 (DOSATEC GmbH, Germany) […]

Duration of retarded in-vitro release: over several hours
SMILES: O=C1O[C@H]([C@@H](O)CO)C(O)=C1O [ascorbic acid, L(+)-ascorbic acid]
